In data set [1] the test system is SW403 (Colon, KRAS^G12V mutation). Put plainly: 15-cell line panel: SW403. The format is cell-based, human. Conditions: independent laboratory panel.
In data set [2] the test system is human tumor 15-cell line panel. The data set is described as follows: Human tumor 15-cell line panel, whole panel (averages, ranges). Type of data set: cell-based.
The test system of the next data set is LNCaP-FGC (Prostate). Put plainly: 15-cell line panel: LNCaP-FGC. The format is cell-based, human. The conditions noted are these: independent laboratory panel; read-out: IC50 (nM) LNCaP-FGC.
For data set [3], the system named is AU565 (Breast, overexpression of her2/neu). Put plainly: 15-cell line panel, independent laboratory: AU565. Type of data set: cell-based, human.
In data set [4] the test system is HCT116 (human colorectal carcinoma) cells. The data set is described as follows: Cell growth inhibition assay, HCT116. The format is cell-based. Conditions: HCT116 human colon cancer cell line; avg of 4-16 determinations; read-out: IC50 (nM) HCT116.
For data set [5], the system named is KPL4 (Breast, overexpression of erbB2). Put plainly: 15-cell line panel: KPL4. The conditions noted are these: independent laboratory panel. The format is cell-based, human.
The subject of data set [6] is MDA-MB-468 (Breast, triple negative, amplified EGFR). Put plainly: 15-cell line panel: MDA-MB-468. Type of data set: cell-based, human. Conditions: independent laboratory panel.
Data set [7] relates to PA-1 (Ovary, overexpression of AIB1). Put plainly: 15-cell line panel: PA-1. The format is cell-based, human. The conditions noted are these: independent laboratory panel.
The subject of data set [8] is HCT116/VM46 (Colon, vinblastine resistant). The data set is described as follows: 15-cell line panel: HCT116/VM46. The format is cell-based, human. Conditions: independent laboratory panel.
Data set [9] deals with MCF-7 (Breast, overexpression of her2/neu). Put plainly: 15-cell line panel: MCF-7. The format is cell-based, human. Conditions: independent laboratory panel; > = highest concentration tested.
In data set [10] the test system is T47D (Breast, mutant p53). The data set is described as follows: 15-cell line panel: T47D. Conditions: independent laboratory panel. Type of data set: cell-based, human.
For data set [11], the system named is HCC1143 (Breast, triple negative). Put plainly: 15-cell line panel: HCC1143. The conditions noted are these: independent laboratory panel. The format is cell-based, human.
Data set [12] deals with ZR-75-1 (Breast, overexpression of her2). The data set is described as follows: 15-cell line panel: ZR-75-1. Conditions: independent laboratory panel. The format is cell-based, human.
Data set [13] has as its system HCT116/VM46 (vinblastine-resistant strain of HCT116, Pgp over-expression) cells. Put plainly: Cell growth inhibition assay, HCT116/VM46. The conditions noted are these: read-out: IC50 (nM) HCT116/VM46; resistant human colon cancer cell line, Pgp over-expression.
Data set [14] relates to LS174T (Colon, high levels of MUC2 mRNA). The data set is described as follows: 15-cell line panel: LS174T. The format is cell-based, human. The conditions noted are these: independent laboratory panel.
The subject of data set [15] is L1210 (mouse lymphocytic leukemia) cells. The data set is described as follows: Cell growth inhibition assay, L1210. The format is cell-based. The conditions noted are these: L1210 murine leukemia cell line; avg of 4-16 determinations.
The test system of a further data set is NCI-H520 (Lung). The data set is described as follows: 15-cell line panel: NCI-H520. The format is cell-based, human. The conditions noted are these: independent laboratory panel.
For a further data set, the system named is HCT116 (Colon). Put plainly: 15-cell line panel: HCT116. Type of data set: cell-based, human. Conditions: independent laboratory panel.
Data set [16] has as its system HCC70 (Breast, overexpression of p53). The data set is described as follows: 15-cell line panel: HCC70. Conditions: independent laboratory panel. Type of data set: cell-based, human.
The target of another data set is T1, porcine tubulin (Sus scrofa, UniProt P02550+P02554).
T1 construct: purified porcine tubulin; purchased Cytoskeleton, Inc
T1 sequence (P02550 whole entry): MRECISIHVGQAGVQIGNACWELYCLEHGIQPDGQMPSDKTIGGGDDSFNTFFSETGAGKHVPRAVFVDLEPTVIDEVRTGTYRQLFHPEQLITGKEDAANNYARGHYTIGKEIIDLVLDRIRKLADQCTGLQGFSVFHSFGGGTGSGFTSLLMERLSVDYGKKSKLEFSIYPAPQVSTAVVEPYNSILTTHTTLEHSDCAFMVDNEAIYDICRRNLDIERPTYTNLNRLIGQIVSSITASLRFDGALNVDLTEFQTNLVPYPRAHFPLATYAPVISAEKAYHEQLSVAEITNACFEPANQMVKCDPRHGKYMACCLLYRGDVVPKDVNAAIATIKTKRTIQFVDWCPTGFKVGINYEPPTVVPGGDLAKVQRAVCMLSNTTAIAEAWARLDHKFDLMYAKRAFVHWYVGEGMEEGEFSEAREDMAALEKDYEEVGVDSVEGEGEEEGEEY
T1 sequence (P02554 whole entry): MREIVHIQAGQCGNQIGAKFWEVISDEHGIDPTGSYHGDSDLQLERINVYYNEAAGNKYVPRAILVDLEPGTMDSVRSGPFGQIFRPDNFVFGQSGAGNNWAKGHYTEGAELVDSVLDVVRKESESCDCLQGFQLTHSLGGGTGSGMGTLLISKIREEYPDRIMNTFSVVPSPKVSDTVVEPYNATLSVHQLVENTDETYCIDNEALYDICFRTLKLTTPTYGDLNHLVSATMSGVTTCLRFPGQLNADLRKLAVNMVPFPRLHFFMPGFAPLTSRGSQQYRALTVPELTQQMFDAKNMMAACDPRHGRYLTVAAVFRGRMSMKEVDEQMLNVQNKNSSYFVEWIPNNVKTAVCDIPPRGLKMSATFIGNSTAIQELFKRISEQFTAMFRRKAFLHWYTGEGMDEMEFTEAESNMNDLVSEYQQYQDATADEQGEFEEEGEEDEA
Type of data set: binding. The text has this:
[Owellen et al., Biochem. Pharmacol. 1977 26:1213-1219.] […] Millipore Steriflip® filter units were used to wash the filter paper with buffer under mild suction.

pIC50: −log10 of the molar value.

In general, pIC50 refers to the IC50 on a negative log10 scale, so that one unit is a factor of ten. As to `CC[C@]1(NC(=O)N2Cc3ccccc3C2)C[C@@H]2CN(CCc3c([nH]c4ccccc34)[C@@](C(=O)OC)(c3cc4c(cc3OC)N(C)[C@H]3[C@@](O)(C(=O)OC)[C@H](OC(C)=O)[C@]5(CC)C=CCN6CC[C@]43[C@@H]65)C2)C1` [Compound 58], the IC50 turned out to be 0.45 nM in data set [1]; 0.24 nM in the data set with LNCaP-FGC (Prostate); 0.11 nM in [3]; 0.6 nM in data set [4]; 0.04 nM in data set [5]; 0.39 nM in data set [6]. Moreover, the IC50 in [7] was 0.11 nM; in data set [8] (> = highest concentration tested), 3.5 nM; in data set [9] it was more than 12.5 nM; in data set [10], 0.41 nM; in [11] it was 0.09 nM; in [12], 0.45 nM. In addition, the IC50 came out at 7.5 nM in [13]; 0.45 nM in data set [14]; 0.51 nM in data set [15]; 0.1 nM in the data set with NCI-H520 (Lung); 0.16 nM in the data set on HCT116 (Colon); 0.04 nM in data set [16]. Further, in data set [2] (average over panel), the “average enhancement over the activity of vinblastine in panel” value was found to be 30 fold. Further, the “average IC50 value in human tumor cell line panel” value in data set [2] (comparative average) was 0.2 nM. In addition, the pIC50 in [2] (range over cell lines, read-out: IC50 values across the panel) was 9.35 to 10.40. Also, in [8], the “differential of HCT116/VM46 from sensitive HCT116 in panel” value came out at 20 fold. Also, on porcine tubulin (in words), the “tubulin binding affinity compared with vinblastine” value is on record as “higher affinity than vinblastine”. For the same compound, at porcine tubulin (ligand vs [^3H]VBL (1:1), normalized to VLB + [^3H]VLB = 50.0%), the “% ^3H-vinblastine remaining bound” value was 41.2%.

Source of the values: patent publication US20150291610A1, “C20' Urea Derivatives of Vinca Alkaloids” (THE SCRIPPS RESEARCH INSTITUTE, priority 2012, published 2015).
